Measured values published in patent publication US20260026501A1, “AGROCHEMICAL COMPOSITION OF SDHI FUNGICIDES” (ADAMA MAKHTESHIM LTD., priority 2022, published 2026).

Assay: Concentration of the actives by HPLC after storage (storage stability)
Type: physicochemical
Description: The assay of the two Ai's was checked by HPLC Method.
The analytical method included: • 1. Preparation of standard solution. • 2. Sample solution preparation: 200 mg sample was measured in triplicates into 50 ml volumetric flask. • 3. Acetonitrile was added. • 4. Injection of the standard and sample solutions in room temperature.
The concentration was calculated by: […]
The samples were checked for assay after 11 days and 14 days at room temperature and at 54° C. The AI % should not decrease more than 5% after the accelerated stability at 54° C.
The samples were checked for assay after 11 days and 14 days at room temperature and at 54° C.
The AI % should not decrease more than 5% after the accelerated stability at 54° C.

[1] = 11 days after EC preparation (54° C.)
[2] = 11 days after EC preparation (r.t)
[3] = 14 days after EC preparation (54° C.)
[4] = 14 days after EC preparation (r.t)

| SMILES | Concentration of the active in formulation A [1] [µg/mL] | Concentration of the active in formulation A [2] [µg/mL] | Concentration of the active in formulation A [3] [µg/mL] | Concentration of the active in formulation A [4] [µg/mL] | Concentration of the active in formulation B (after 14 days (54° C.)) [µg/mL] | Concentration of the active in formulation B (after 14 days (r.t)) [µg/mL] | Concentration of the active in formulation A (after EC preparation) [µg/mL] | Concentration of the active in formulation B (after EC preparation) [µg/mL] |
| --- | --- | --- | --- | --- | --- | --- | --- | --- |
| OC(Cc1ccccc1Cl)(Cn1nc[nH]c1=S)C1(Cl)CC1 (racemic) [Prothioconazole, 2-[(2RS)-2-(1-chlorocyclopropyl)-3-(2-chlorophenyl)-2-hydroxypropyl]-2H-1,2,4-triazole-3(4H)-thione] | 14900 | 15100 | 14700 | 14800 | 14700 | 14500 | 15200 | 15300 |
| Cn1cc(C(=O)Nc2ccccc2-c2cc(F)c(F)c(F)c2)c(C(F)F)n1 [Fluxapyroxad, 3-(difluoromethyl)-1-methyl-N-(3′,4′,5′-trifluorobiphenyl-2-yl)pyrazole-4-carboxamide] | 7500 | 7500 | 7500 | 7400 | 9000 | 8800 | 7500 | 8900 |
